In the supplement of paper PMC13380429:

Legend:
Settings in all cases: 72 h
Vero E6 [1] = test: cell viability relative to DMSO; higher = less toxic
U2OS [2] = test: as above
HepG2 [3] = test: as above
Caco-2 [4] = test: as above
Calu-3 [5] = test: as above
Vero E6 [6] = test: drug sensitivity score (DSS) for viability; higher = more toxic; extreme values may be limits of the assay
U2OS [7] = test: as above
HepG2 [8] = test: as above
Caco-2 [9] = test: as above
Calu-3 [10] = test: as above
Vero E6 [11] = test: relative viability EC50 (midpoint between 100% and the lowest measured viability); higher = less toxic
U2OS [12] = test: as above
HepG2 [13] = test: as above
Calu-3 [14] = test: as above
Caco-2 [15] = test: as above

Row | SMILES | cell viability (Vero E6 [1]; 1 nM) [%] | cell viability (Vero E6 [1]; 10 nM) [%] | cell viability (Vero E6 [1]; 100 nM) [%] | cell viability (Vero E6 [1]; 1000 nM) [%] | cell viability (Vero E6 [1]; 10000 nM) [%] | cell viability (U2OS [2]; 1 nM) [%] | cell viability (U2OS [2]; 10 nM) [%] | cell viability (U2OS [2]; 100 nM) [%] | cell viability (U2OS [2]; 1000 nM) [%] | cell viability (U2OS [2]; 10000 nM) [%] | cell viability (HepG2 [3]; 1 nM) [%] | cell viability (HepG2 [3]; 10 nM) [%] | cell viability (HepG2 [3]; 100 nM) [%] | cell viability (HepG2 [3]; 1000 nM) [%] | cell viability (HepG2 [3]; 10000 nM) [%] | cell viability (Caco-2 [4]; 1 nM) [%] | cell viability (Caco-2 [4]; 10 nM) [%] | cell viability (Caco-2 [4]; 100 nM) [%] | cell viability (Caco-2 [4]; 1000 nM) [%] | cell viability (Caco-2 [4]; 10000 nM) [%] | cell viability (Calu-3 [5]; 1 nM) [%] | cell viability (Calu-3 [5]; 10 nM) [%] | cell viability (Calu-3 [5]; 100 nM) [%] | cell viability (Calu-3 [5]; 1000 nM) [%] | cell viability (Calu-3 [5]; 10000 nM) [%] | drug sensitivity score (Vero E6 [6]) | drug sensitivity score (U2OS [7]) | drug sensitivity score (HepG2 [8]) | drug sensitivity score (Caco-2 [9]) | drug sensitivity score (Calu-3 [10]) | relative viability EC50 (Vero E6 [11]) [µM] | relative viability EC50 (U2OS [12]) [µM] | relative viability EC50 (HepG2 [13]) [µM] | relative viability EC50 (Calu-3 [14]) [µM] | relative viability EC50 (Caco-2 [15]) [µM]
1 | COc1ccc(CNC(=O)Nc2ncc([N+](=O)[O-])s2)cc1 | 106 | 104 | 101 | 102 | 97.2 | 96.1 | 104 | 96.5 | 102 | 90.8 | 113 | 107 | 102 | 99.8 | 30.3 | 105 | 103 | 95.5 | 103 | 73.7 | 104 | 107 | 94.9 | 107 | 96.5 | 0 | 0 | 3.9 | 0.9 | 0 | > 10 | > 10 | 3.15 | > 10 | –
2 | C=C(c1ccccc1OCc1cccc(Cl)c1)n1ccnc1 [croconazole] | 102 | 97 | 112 | 107 | 105 | 96.2 | 104 | 93.2 | 103 | 90 | 102 | 101 | 102 | 110 | 88 | 102 | 104 | 90.9 | 87.8 | 69.6 | 94.4 | 104 | 97.5 | 93.1 | 92.1 | 0 | 0 | 0 | 2.5 | 0 | > 10 | > 10 | > 10 | > 10 | –
3 | c1nc2c(NC3CCCCC3)nc(Nc3ccc(N4CCOCC4)cc3)nc2[nH]1 [reversine] | 104 | 98.1 | 103 | 65.1 | 58 | 99.9 | 102 | 99.4 | 63.6 | 23.1 | 101 | 89.9 | 89.2 | 46.3 | 27.6 | 99.3 | 93.6 | 97.8 | 84.1 | 35.2 | 102 | 92.4 | 103 | 100 | 73.4 | 6.3 | 8.9 | 11.5 | 6 | 1 | – | 1.04 | 0.401 | – | 1.57
4 | CO[C@H]1CC[C@H](N2C(=O)CNc3ncc(-c4ccc(C(C)(C)O)nc4)nc32)CC1 [CC-223] | 110 | 104 | 99.8 | 92.5 | 52.7 | 99.1 | 95.6 | 102 | 97.7 | 56 | 103 | 95.6 | 98.9 | 94.6 | 42.9 | 102 | 104 | 99.4 | 81.9 | 42.7 | 94.6 | 87.1 | 106 | 74.4 | 41.6 | 3.7 | 2.6 | 4 | 5.8 | 6.6 | – | – | 2.39 | 1.11 | 1.36
5 | O=C(/C=C/c1c(C(=O)O)[nH]c2cc(Cl)cc(Cl)c12)Nc1ccccc1 [gavestinel] | – | – | – | – | – | 101 | 99.2 | 100 | 101 | 100 | 94.5 | 112 | 92.9 | 105 | 101 | 102 | 104 | 91 | 99.6 | 104 | 90.4 | 98.8 | 89.3 | 99.2 | 107 | – | 0 | 0 | 0 | 0 | – | > 10 | > 10 | > 10 | > 10
6 | C=C1c2cccc(O)c2C(=O)C2=C(O)[C@]3(O)C(=O)C(C(N)=O)=C(O)[C@@H](N(C)C)[C@@H]3[C@@H](O)[C@H]12 [methacycline] | 70.6 | 105 | 71.4 | 97.6 | 63.2 | 101 | 96.9 | 104 | 99.9 | 103 | 104 | 99.9 | 97.9 | 96.9 | 89.9 | 98.1 | 95.7 | 99.7 | 93.5 | 95.4 | 99.3 | 89.1 | 100 | 83 | 90.7 | 5.8 | 0 | 0 | 0 | 0.3 | – | > 10 | > 10 | > 10 | > 10
7 | CCOC(CN1CCN(CC(C)C(=O)c2ccccc2)CC1)c1ccccc1 (centres undefined) [eprazinone] | – | – | – | – | – | 98.8 | 95.8 | 95.8 | 95.2 | 98.7 | 111 | 96.7 | 102 | 98.9 | 99.6 | 102 | 98.9 | 110 | 95.4 | 98.2 | 96 | 96.9 | 95.6 | 93 | 90.8 | – | 0 | 0 | 0 | 0 | – | > 10 | > 10 | > 10 | > 10
8 | O=C1c2ccccc2C(Cc2ccnc(F)c2)(Cc2ccnc(F)c2)c2ccccc21 [DMP-543] | 101 | 101 | 100 | 97.7 | 94.8 | 99.8 | 105 | 96 | 96.6 | 95.1 | 90.1 | 100 | 94.4 | 95.4 | 89.4 | 97.2 | 100 | 92.5 | 81.2 | 72.9 | 103 | 92.1 | 85.9 | 92 | 81.3 | 0 | 0 | 0 | 3.3 | 1.7 | > 10 | > 10 | > 10 | > 10 | –
9 | c1coc(CNc2ncnc3[nH]cnc23)c1 [kinetin] | – | – | – | – | – | – | – | – | – | – | 110 | 108 | 99 | 98.7 | 109 | 111 | 104 | 106 | 98.9 | 96.6 | 95.7 | 100 | 101 | 98.4 | 99.3 | – | – | 0 | 0 | 0 | – | – | > 10 | > 10 | > 10
10 | O=C(O)C1CN(Cc2ccc(-c3nc4cc(Cc5ccccc5F)ccc4s3)c(F)c2)C1 [TC-SP-14] | – | – | – | – | – | 99.4 | 97.9 | 98.8 | 102 | 101 | 109 | 121 | 90.3 | 119 | 90 | 97 | 81.7 | 84.2 | 99.1 | 81.8 | 91.2 | 90.5 | 102 | 95.1 | 107 | – | 0 | 0 | 0 | 0 | – | > 10 | > 10 | > 10 | > 10
11 | Cc1ccc(NC(=O)C2(c3ccc4c(c3)OC(F)(F)O4)CC2)nc1-c1cccc(C(=O)O)c1 [lumacaftor] | – | – | – | – | – | – | – | – | – | – | – | – | – | – | – | 106 | 103 | 106 | 92.3 | 93.8 | 113 | 103 | 101 | 98.6 | 108 | – | – | – | 0 | 0 | – | – | – | > 10 | > 10
12 | C[C@@H]1O[C@@H](O[C@H]2[C@H](Oc3cc(O)c4c(c3)O[C@H](c3ccc(O)cc3)CC4=O)O[C@H](CO)[C@@H](O)[C@@H]2O)[C@H](O)[C@H](O)[C@H]1O [Naringin (Naringoside)] | – | – | – | – | – | 99.6 | 94.7 | 101 | 98.2 | 108 | 104 | 112 | 90 | 97.7 | 98.9 | 92.3 | 95.9 | 97.9 | 96.3 | 102 | 110 | 96.9 | 98.8 | 103 | 98.8 | – | 0 | 0 | 0 | 0 | – | > 10 | > 10 | > 10 | > 10
13 | CCOC(=O)c1ncc2[nH]c3cccc(OC(C)C)c3c2c1C | – | – | – | – | – | – | – | – | – | – | 114 | 102 | 137 | 98.8 | 109 | 101 | 113 | 109 | 103 | 75 | 88.7 | 112 | 99.1 | 104 | 74.9 | – | – | 0 | 0.8 | 0.8 | – | – | > 10 | – | > 10
